In patent US20210015098A1, “MOLECULES HAVING PESTICIDAL UTILITY, AND INTERMEDIATES, COMPOSITIONS, AND PROCESSES, RELATED THERETO” (DOW AGROSCIENCES LLC, priority 2018, published 2021):

Legend:
[1] = test system: Cabbage Looper (Trichoplusia ni, TRIPNI); assay: Bioassays on Cabbage Looper (CL), 128-well diet tray assay; format: in vivo; settings: Cabbage Looper, Table ABC Biological Results, read-out: CL (rating)
Method: (§1) Certain molecules disclosed in this document were tested against BAW and CL using procedures described in the following examples. In the reporting of the results, the “BAW & CL Rating Table” was used (See Table Section).
Bioassays on CL were conducted using a 128-well diet tray assay. One to five second instar CL larvae were placed in each well (3 mL) of the diet tray that had been previously filled with 1 mL of artificial diet to which 50 μg/cm^2 of the test molecule (dissolved in 50 μL of 90:10 acetone-water mixture) had been applied (to each of eight wells) and then allowed to dry. Trays were covered with a clear self-adhesive cover, vented to allow gas exchange, and held at 25° C., 14:10 light-dark for five to seven days. Percent mortality was recorded for the larvae in each well; activity in the eight wells was then averaged. The results are indicated in the table entitled “Table ABC: Biological Results” (See Table Section).

[2] = test system: Beet Armyworm (Spodoptera exigua, LAPHEG); assay: Bioassays on Beet Armyworm (BAW), 128-well diet tray assay; format: in vivo; settings: Beet Armyworm, Table ABC Biological Results, read-out: BAW (rating)
Method: as §1
Bioassays on BAW were conducted using a 128-well diet tray assay. One to five second instar BAW larvae were placed in each well (3 mL) of the diet tray that had been previously filled with 1 mL of artificial diet to which 50 μg/cm^2 of the test molecule (dissolved in 50 μL of 90:10 acetone-water mixture) had been applied (to each of eight wells) and then allowed to dry. Trays were covered with a clear self-adhesive cover, vented to allow gas exchange, and held at 25° C., 14:10 light-dark for five to seven days. Percent mortality was recorded for the larvae in each well; activity in the eight wells was then averaged. The results are indicated in the table entitled “Table ABC: Biological Results” (See Table Section).

| SMILES | pest or weed control at 50 µg/cm2 [1] [%] | pest or weed control at 50 µg/cm2 [2] [%] |
| --- | --- | --- |
| O=C(CSC(F)(F)F)Nc1c(F)ccc(NC(=O)c2cc(NC(=O)[C@H]3[C@H](c4cc(C(F)(F)F)cc(C(F)(F)F)c4)C3(Cl)Cl)ccc2Cl)c1F (relative stereo) [F48, trans-5-(3-(3,5-Bis(trifluoromethyl)phenyl)-2,2-dichlorocyclopropane-1-carboxamido)-2-chloro-N-(2,4-difluoro-3-(2-((trifluoromethyl)thio)acetamido)phenyl)benzamide] | 50 to 100 | 50 to 100 |
| O=C(CS(=O)(=O)CC(F)(F)F)Nc1c(F)ccc(NC(=O)c2cc(NC(=O)[C@H]3[C@H](c4ccc(F)c(Cl)c4)C3(Cl)Cl)ccc2Cl)c1F [F43, 2-Chloro-5-((1R,3R)-2,2-dichloro-3-(3-chloro-4-fluorophenyl)cyclopropane-1-carboxamido)-N-(2,4-difluoro-3-(2-((2,2,2-trifluoroethyl)sulfonyl)acetamido)phenyl)benzamide] | 50 to 100 | 50 to 100 |
| O=C(CS(=O)(=O)CC(F)(F)F)Nc1c(F)ccc(NC(=O)c2cc(NC(=O)[C@H]3[C@H](c4ccc(Cl)c(Cl)c4)C3(Cl)Cl)ccc2Cl)c1F [F42, 2-chloro-5-((1R,3R)-2,2-dichloro-3-(3,4-dichlorophenyl)cyclopropane-1-carboxamido)-N-(2,4-difluoro-3-(2-((2,2,2-trifluoroethyl)sulfonyl)acetamido)phenyl)benzamide] | 50 to 100 | 50 to 100 |
| O=C(CSCCC(F)(F)F)Nc1c(F)ccc(NC(=O)c2cc(NC(=O)[C@H]3[C@H](c4ccc(F)c(C(F)(F)F)c4)C3(Cl)Cl)ccc2Cl)c1F [F5, 2-Chloro-5-((1R,3R)-2,2-dichloro-3-(4-fluoro-3-(trifluoromethyl)phenyl)cyclopropane-1-carboxamido)-N-(2,4-difluoro-3-(2-((3,3,3-trifluoropropyl)thio)acetamido)phenyl)benzamide] | 50 to 100 | 50 to 100 |
| CC(C(=O)Nc1c(F)ccc(NC(=O)c2cc(NC(=O)[C@H]3[C@H](c4ccc(F)c(Cl)c4)C3(Cl)Cl)ccc2Cl)c1F)[S+]([O-])C(F)(F)F (stereo partly drawn) [F27, 2-Chloro-5-((1R,3R)-2,2-dichloro-3-(3-chloro-4-fluorophenyl)cyclopropane-1-carboxamido)-N-(2,4-difluoro-3-(2-((trifluoromethyl)sulfinyl)propanamido)phenyl)benzamide] | 50 to 100 | 50 to 100 |
| O=C(C[S+]([O-])C(F)(F)F)Nc1c(F)ccc(NC(=O)c2cc(NC(=O)[C@H]3[C@H](c4cc(Cl)c(Cl)c(Cl)c4)C3(Cl)Cl)ccc2Cl)c1F (stereo partly drawn) [F26, 2-Chloro-5-((1R,3R)-2,2-dichloro-3-(3,4,5-trichlorophenyl)cyclopropane-1-carboxamido)-N-(2,4-difluoro-3-(2-((trifluoromethyl)sulfinyl)acetamido)phenyl)benzamide] | 50 to 100 | 50 to 100 |
| CC(SC(F)(F)F)C(=O)Nc1c(F)ccc(NC(=O)c2cc(NC(=O)[C@H]3[C@H](c4ccc(F)c(Cl)c4)C3(Cl)Cl)ccc2Cl)c1F (stereo partly drawn) [F13, 2-Chloro-5-((1R,3R)-2,2-dichloro-3-(3-chloro-4-fluorophenyl)cyclopropane-1-carboxamido)-N-(2,4-difluoro-3-(2-((trifluoromethyl)thio)propanamido)phenyl)benzamide] | 50 to 100 | 50 to 100 |
| O=C(CSC(F)(F)F)Nc1c(F)ccc(NC(=O)c2cc(NC(=O)[C@H]3[C@H](c4cc(Cl)c(Cl)c(Cl)c4)C3(Cl)Cl)ccc2Cl)c1F [F8, 2-Chloro-5-((1R,3R)-2,2-dichloro-3-(3,4,5-trichlorophenyl)cyclopropane-1-carboxamido)-N-(2,4-difluoro-3-(2-((trifluoromethyl)thio)acetamido)phenyl)benzamide] | 50 to 100 | 50 to 100 |
| O=C(C[S+]([O-])CC(F)(F)F)Nc1c(F)ccc(NC(=O)c2cc(NC(=O)[C@H]3[C@H](c4cc(Cl)c(Cl)c(Cl)c4)C3(Cl)Cl)ccc2Cl)c1F (stereo partly drawn) [F29, 2-Chloro-5-((1R,3R)-2,2-dichloro-3-(3,4,5-trichlorophenyl)cyclopropane-1-carboxamido)-N-(2,4-difluoro-3-(2-((2,2,2-trifluoroethyl)sulfinyl)acetamido)phenyl)benzamide] | 50 to 100 | 50 to 100 |
| O=C(CSCC(F)(F)F)Nc1ccc(NC(=O)c2cc(NC(=O)[C@H]3[C@H](c4ccc(F)c(C(F)(F)F)c4)C3(Cl)Cl)ccc2Cl)c(F)c1 [F52, 2-Chloro-5-((1R,3R)-2,2-dichloro-3-(4-fluoro-3-(trifluoromethyl)phenyl)cyclopropane-1-carboxamido)-N-(2-fluoro-4-(2-((2,2,2-trifluoroethyl)thio)acetamido)phenyl)benzamide] | 50 to 100 | 50 to 100 |
| O=C(C[S+]([O-])C(F)(F)F)Nc1c(F)ccc(NC(=O)c2cc(NC(=O)[C@H]3[C@H](c4ccc(F)c(C(F)(F)F)c4)C3(Cl)Cl)ccc2Cl)c1F (stereo partly drawn) [F33, 2-chloro-5-((R,3R)-2,2-dichloro-3-(4-fluoro-3-(trifluoromethyl)phenyl)cyclopropane-1-carboxamido)-N-(2,4-difluoro-3-(2-((trifluoromethyl)sulfinyl)acetamido)phenyl)benzamide] | 50 to 100 | 50 to 100 |
| CSC(F)(F)C(=O)Nc1c(F)ccc(NC(=O)c2cc(NC(=O)[C@H]3[C@H](c4ccc(F)c(C(F)(F)F)c4)C3(Cl)Cl)ccc2Cl)c1F [F1, 2-Chloro-5-((1R,3R)-2,2-dichloro-3-(4-fluoro-3-(trifluoromethyl)phenyl)cyclopropane-1-carboxamido)-N-(3-(2,2-difluoro-2-(methylthio)acetamido)-2,4-difluorophenyl)benzamide] | 50 to 100 | 50 to 100 |
| CC(SC(F)(F)F)C(=O)Nc1c(F)ccc(NC(=O)c2cc(NC(=O)[C@H]3[C@H](c4cc(Cl)c(Cl)c(Cl)c4)C3(Cl)Cl)ccc2Cl)c1F (stereo partly drawn) [F7, 2-Chloro-5-((1R,3R)-2,2-dichloro-3-(3,4,5-trichlorophenyl)cyclopropane-1-carboxamido)-N-(2,4-difluoro-3-(2-((trifluoromethyl)thio)propanamido)phenyl)benzamide] | 50 to 100 | 50 to 100 |
| O=C(CCSC(F)(F)F)Nc1c(F)ccc(NC(=O)c2cc(NC(=O)[C@H]3[C@H](c4ccc(F)c(C(F)(F)F)c4)C3(Cl)Cl)ccc2Cl)c1F [F22, 2-Chloro-5-((1R,3R)-2,2-dichloro-3-(4-fluoro-3-(trifluoromethyl)phenyl)cyclopropane-1-carboxamido)-N-(2,4-difluoro-3-(3-((trifluoromethyl)thio)propanamido)phenyl)benzamide] | 50 to 100 | 50 to 100 |
| O=C(CSCC(F)(F)F)Nc1c(F)ccc(NC(=O)c2cc(NC(=O)[C@H]3[C@H](c4cc(Cl)c(Cl)c(Cl)c4)C3(Cl)Cl)ccc2Cl)c1F [F6, 2-Chloro-5-((1R,3R)-2,2-dichloro-3-(3,4,5-trichlorophenyl)cyclopropane-1-carboxamido)-N-(2,4-difluoro-3-(2-((2,2,2-trifluoroethyl)thio)acetamido)phenyl)benzamide] | 50 to 100 | 50 to 100 |
| O=C(CS(=O)(=O)C(F)(F)F)Nc1c(F)ccc(NC(=O)c2cc(NC(=O)[C@H]3[C@H](c4ccc(F)c(Cl)c4)C3(Cl)Cl)ccc2Cl)c1F [F40] | 50 to 100 | 50 to 100 |
| CCS(=O)(=O)C(C)C(=O)Nc1c(F)ccc(NC(=O)c2cc(NC(=O)[C@H]3[C@H](c4ccc(F)c(C(F)(F)F)c4)C3(Cl)Cl)ccc2Cl)c1F (stereo partly drawn) [F45, 2-chloro-5-((R,3R)-2,2-dichloro-3-(4-fluoro-3-(trifluoromethyl)phenyl)cyclopropane-1-carboxamido)-N-(3-(2-(ethylsulfonyl)propanamido)-2,4-difluorophenyl)benzamide] | 50 to 100 | 50 to 100 |
| O=C(CSC(F)(F)F)Nc1c(F)ccc(NC(=O)c2cc(NC(=O)[C@H]3[C@H](c4ccc(Cl)c(Cl)c4)C3(Cl)Cl)ccc2Cl)c1F [F11, 2-Chloro-5-((1R,3R)-2,2-dichloro-3-(3,4-dichlorophenyl)cyclopropane-1-carboxamido)-N-(2,4-difluoro-3-(2-((trifluoromethyl)thio)acetamido)phenyl)benzamide] | 50 to 100 | 50 to 100 |
| CC(C(=O)Nc1c(F)ccc(NC(=O)c2cc(NC(=O)[C@H]3[C@H](c4ccc(Cl)c(Cl)c4)C3(Cl)Cl)ccc2Cl)c1F)S(=O)(=O)C(F)(F)F (stereo partly drawn) [F37, 2-Chloro-5-((1R,3R)-2,2-dichloro-3-(3,4-dichlorophenyl)cyclopropane-1-carboxamido)-N-(2,4-difluoro-3-(2-((trifluoromethyl)sulfonyl)propanamido)phenyl)benzamide] | 50 to 100 | 50 to 100 |
